Patent publication US12472448B2, “Compact hydroxamate-based affinity tags for artificially tagging biological macromolecules” (The Board of Trustees of the Leland Stanford Junior …, priority 2019, dated 2025)

Columns and labels:
[1] = test system: GFP; assay type: cell-based, S. cerevisiae; settings: 365-nm diode, 1 minute
Method: S. cervisae was made to express GFP containing isoazipropyl chloride or isoazibutyl chloride as described above. These cells were illuminated by a 365-nm diode (a Prizmatix Mic-LED-365 powered by a BLCC-02 at 0.5 ampere) for 1 minute and then cryogenically ground. Their protein was run on a denaturing SDS-PAGE gel to look for higher-molecular weight species resulting from crosslinking between the two GFP monomers (see e.g., FIG. 41).

[2] = N-tagging of Alexa-350 ADNGK peptide with orthogonal affinity tags, reverse phase HPLC; settings: 5 mM of each N-tag, 4 hours at 37° C., pH 7.5
Method: A peptide with the sequence ADNGK (SEQ ID NO: 1) was purchased with its N-terminal Fmoc protecting group still in place. This peptide was reacted with NHS-activated fluorophore Alexa-350 (ThermoFisher, A10168) before the Fmoc group was removed using piperidine and the peptide was purified by preparative HPLC.
We treated this peptide with the N-tags form examples 7 and 10, either separately or in combination. This labeling done for 4 hours at 37° C. with 5 mM of each N-tag, 100 mM of sodium phosphate buffered to pH 7.5 and 10% acetonitrile. The resulting species were analyzed by reverse phase HPLC (see, e.g., FIG. 14).

[3] = test system: modified RNase H containing a single cysteine; experiment: In vitro intraprotein photo-crosslinking, denaturing SDS-PAGE; assay type: biochemical; settings: mercury arc lamp, 310-370 nm
Text: A modified RNase H containing a single cysteine was expressed, purified, alkylated with isoazipropyl chloride and repurified as above.
The alkylated protein was illuminated with a mercury arc lamp through filters selecting for light in the 310-370-nm range.

[4] = test system: modified RNase H containing a single cysteine; experiment: Chemical anchoring of crosslinker to protein cysteine, Ellman's assay; assay type: biochemical; settings: 10 ul crosslinker, 1 hour at 37° C., pH 8.6
Method: A modified RNase H containing a single cysteine was expressed in E. coli and purified and purified by Ni-IMAC and heparin chromatography.
To 2.75 mg of this protein in 20 ml of 100-mM bicine, 1-mM TCEP, 600-mM NaCl, 100-mM KCl, pH 8.6 was added either 0 or 10 ul of isoazipropyl chloride. These mixtures were incubated for 1 hour at 37° C. The proteins were repurified by heparin chromatography to remove TCEP and isoazipropyl chloride, and the number of free cysteines per protein was determined using Ellman's assay.

[5] = target: GST (Schistosoma japonicum, UniProt P08515); experiment: Photo-crosslinking of aziethyl glutathione to GST, whole-protein LCMS; assay type: biochemical; settings: 1 mM, 7 mg/ml GST, 337-nm light, 30 minutes
Chain of GST (P08515 2-218): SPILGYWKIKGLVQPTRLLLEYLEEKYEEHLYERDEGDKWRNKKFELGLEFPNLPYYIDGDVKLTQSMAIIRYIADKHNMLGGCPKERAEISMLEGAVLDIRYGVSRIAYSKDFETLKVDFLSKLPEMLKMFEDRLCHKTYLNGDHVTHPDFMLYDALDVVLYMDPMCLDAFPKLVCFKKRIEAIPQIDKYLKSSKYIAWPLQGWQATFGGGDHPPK
Method: Aziethyl chloride was anchored to glutathione. 25 mg of glutathione and 5 mg of TCEP were dissolved in 2 ml of methanol, 1 ml of water and 50 ul of TEA. To this were added 41 ul of the aziethyl chloride-alkene mixture synthesized in example 19. The mixture was stirred overnight, lyophilized and resuspended in 2.6 ml of water to make a 30-mM solution. This aziethyl glutathione solution was used without any purification.
7 mg/ml of GST was incubated with 0 or 1 mM of aziethyl glutathione. This mixture was placed beneath 337-nm light source (Laser Science, Inc. VSL-337ND-S) for either 0 or 30 minutes and then subjected to whole-protein LCMS.

CC1(CCSC[C@H](N)C(=O)O)N=N1 [Isoazibutyl cysteine, isoazibutyl cysteine]
interprotein crosslinking of the proteins [1]: 8%

CC1(CSC[C@H](N)C(=O)O)N=N1 [Isoazipropyl cysteine, isoazipropyl cysteine]
interprotein crosslinking of the proteins [1]: 2%

C[C@@H]1NC(=O)N[C@@H]1CCCCCC(=O)N(C)Cc1cccc(C=O)n1 [compound 10]
labeling of peptide N-termini [2]: efficiently label the peptides

O=Cc1cccc(C(=O)NO)n1 [hydroxamate affinity tag]
labeling of peptide N-termini [2]: efficiently label the peptides

NC(=O)CI [iodoacetamide, reference compound]
appearance of faster-migrating band (intramolecular crosslink) [3]: did not appear

CC1(CCl)N=N1 [isoazipropyl chloride]
appearance of faster-migrating band (intramolecular crosslink) [3]: new faster-migrating band to appear | free cysteines per protein [4]: 0.15 | protein's cysteines anchored by the crosslinker [4]: 85%

allylcysteine [reference compound]
interprotein crosslinking of the proteins [1]: lack of similar crosslinking

aziethyl glutathione
GST molecules shifted as expected from covalent crosslinking [5]: 40%
